Test results published in patent US9499535B2, “Kinase inhibitors” (ORIGENIS GMBH, priority 2011, dated 2016).

Legend:
[1] = molecular target: LRRK2 (Homo sapiens, UniProt Q5S007); experiment: LRRK2 assay (LanthaScreen Eu Kinase Binding Assay); conditions: 5 nM LRRK2, 10 nM tracer 236, RT 1 h; read-out: LRRK2 Activites: IC50
In short: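 IC50 was derived from a sigmoidal dose-response fit with variable slope, plotting emission ratio against inhibitor concentration. The read-out is loss of FRET between a europium-labelled anti-tag antibody on the kinase and a tracer displaced by inhibitor.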

[2] = molecular target: MYLK (Homo sapiens, UniProt Q15746); experiment: MYLK assay (LanthaScreen Eu Kinase Binding Assay); conditions: 5 nM MYLK, 30 nM tracer 236, RT 1 h; read-out: MYLK Activites: IC50
MYLK, sequence (Q15746 whole entry): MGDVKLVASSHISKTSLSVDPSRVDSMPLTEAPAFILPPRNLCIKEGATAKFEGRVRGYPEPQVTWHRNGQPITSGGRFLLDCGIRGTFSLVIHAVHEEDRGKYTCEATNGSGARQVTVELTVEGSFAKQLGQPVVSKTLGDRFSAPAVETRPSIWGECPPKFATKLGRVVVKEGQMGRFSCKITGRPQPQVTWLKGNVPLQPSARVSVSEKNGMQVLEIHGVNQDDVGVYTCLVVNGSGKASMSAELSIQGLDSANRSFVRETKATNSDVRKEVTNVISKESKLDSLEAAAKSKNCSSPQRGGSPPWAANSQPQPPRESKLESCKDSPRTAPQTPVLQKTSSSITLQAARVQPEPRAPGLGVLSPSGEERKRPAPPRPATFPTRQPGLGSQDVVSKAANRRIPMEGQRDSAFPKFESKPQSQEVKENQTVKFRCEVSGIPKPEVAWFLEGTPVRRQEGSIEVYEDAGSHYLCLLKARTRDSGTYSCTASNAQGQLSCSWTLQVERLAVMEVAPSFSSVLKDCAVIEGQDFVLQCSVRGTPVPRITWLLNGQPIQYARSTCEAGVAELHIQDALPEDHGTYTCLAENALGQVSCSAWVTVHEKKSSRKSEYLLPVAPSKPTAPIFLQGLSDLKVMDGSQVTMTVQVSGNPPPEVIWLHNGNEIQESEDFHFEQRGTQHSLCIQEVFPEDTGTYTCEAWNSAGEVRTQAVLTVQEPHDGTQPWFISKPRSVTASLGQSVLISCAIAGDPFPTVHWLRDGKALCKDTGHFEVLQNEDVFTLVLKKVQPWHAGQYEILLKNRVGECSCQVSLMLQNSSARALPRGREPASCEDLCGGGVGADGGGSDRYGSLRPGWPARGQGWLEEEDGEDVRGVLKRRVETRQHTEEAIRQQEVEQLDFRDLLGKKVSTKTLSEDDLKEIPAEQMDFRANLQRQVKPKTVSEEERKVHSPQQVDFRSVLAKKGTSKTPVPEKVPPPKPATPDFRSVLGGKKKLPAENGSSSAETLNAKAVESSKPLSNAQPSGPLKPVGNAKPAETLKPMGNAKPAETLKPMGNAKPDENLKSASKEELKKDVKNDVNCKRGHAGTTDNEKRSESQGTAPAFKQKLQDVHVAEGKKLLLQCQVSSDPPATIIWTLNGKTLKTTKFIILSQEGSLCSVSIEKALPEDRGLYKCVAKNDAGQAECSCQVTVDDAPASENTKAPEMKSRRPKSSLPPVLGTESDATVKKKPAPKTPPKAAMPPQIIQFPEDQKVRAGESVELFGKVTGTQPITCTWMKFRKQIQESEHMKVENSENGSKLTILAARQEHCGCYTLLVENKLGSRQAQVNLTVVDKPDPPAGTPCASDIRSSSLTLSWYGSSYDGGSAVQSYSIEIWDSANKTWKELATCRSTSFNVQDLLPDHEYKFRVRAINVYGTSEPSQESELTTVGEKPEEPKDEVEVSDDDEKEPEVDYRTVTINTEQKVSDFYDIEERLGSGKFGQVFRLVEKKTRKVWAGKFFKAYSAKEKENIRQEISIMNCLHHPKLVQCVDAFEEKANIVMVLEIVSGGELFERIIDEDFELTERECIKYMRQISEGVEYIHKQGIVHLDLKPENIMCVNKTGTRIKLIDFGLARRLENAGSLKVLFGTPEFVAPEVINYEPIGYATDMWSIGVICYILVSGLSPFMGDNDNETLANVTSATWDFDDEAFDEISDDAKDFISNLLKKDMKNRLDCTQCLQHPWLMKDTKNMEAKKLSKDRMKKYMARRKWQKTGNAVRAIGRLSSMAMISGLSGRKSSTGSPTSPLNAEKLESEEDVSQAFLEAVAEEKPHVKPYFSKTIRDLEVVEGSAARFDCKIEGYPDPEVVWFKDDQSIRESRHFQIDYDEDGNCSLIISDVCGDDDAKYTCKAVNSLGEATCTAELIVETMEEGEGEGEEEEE
In short: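 TR-FRET tracer-displacement binding: 5 nM MYLK with 2 nM Eu-anti-GST antibody and 30 nM tracer 236 in kinase buffer A, 1 h at RT. The 665/615 nm emission ratio was plotted against inhibitor concentration; IC50 from variable-slope sigmoidal fit.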

[3] = molecular target: T1, SYK kinase (Homo sapiens, UniProt P43405); experiment: SYK assay (OMNIA Kinase Assay, Invitrogen); type: biochemical; conditions: apparent Ki calculated from the IC50 using the Cheng-Prusoff equation; 1 mM ATP, 10 μM Peptide Substrate; read-out: SYK Activities: Ki
T1 construct: purchased Invitrogen, Carlsbad
In short: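 Reaction velocities were measured from kinetic fluorescence reads (360/485 nm, every 30 s over 30 min) of Mg2+-chelated SOX signal. Conditions were 1 mM ATP, 10 μM Omnia Tyr 7 peptide and 0.2 mM DTT at 30° C. Sigmoidal IC50 fits were converted to apparent Ki using Cheng-Prusoff.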

LRRK2, sequence (Q5S007 970-2527 limits assumed): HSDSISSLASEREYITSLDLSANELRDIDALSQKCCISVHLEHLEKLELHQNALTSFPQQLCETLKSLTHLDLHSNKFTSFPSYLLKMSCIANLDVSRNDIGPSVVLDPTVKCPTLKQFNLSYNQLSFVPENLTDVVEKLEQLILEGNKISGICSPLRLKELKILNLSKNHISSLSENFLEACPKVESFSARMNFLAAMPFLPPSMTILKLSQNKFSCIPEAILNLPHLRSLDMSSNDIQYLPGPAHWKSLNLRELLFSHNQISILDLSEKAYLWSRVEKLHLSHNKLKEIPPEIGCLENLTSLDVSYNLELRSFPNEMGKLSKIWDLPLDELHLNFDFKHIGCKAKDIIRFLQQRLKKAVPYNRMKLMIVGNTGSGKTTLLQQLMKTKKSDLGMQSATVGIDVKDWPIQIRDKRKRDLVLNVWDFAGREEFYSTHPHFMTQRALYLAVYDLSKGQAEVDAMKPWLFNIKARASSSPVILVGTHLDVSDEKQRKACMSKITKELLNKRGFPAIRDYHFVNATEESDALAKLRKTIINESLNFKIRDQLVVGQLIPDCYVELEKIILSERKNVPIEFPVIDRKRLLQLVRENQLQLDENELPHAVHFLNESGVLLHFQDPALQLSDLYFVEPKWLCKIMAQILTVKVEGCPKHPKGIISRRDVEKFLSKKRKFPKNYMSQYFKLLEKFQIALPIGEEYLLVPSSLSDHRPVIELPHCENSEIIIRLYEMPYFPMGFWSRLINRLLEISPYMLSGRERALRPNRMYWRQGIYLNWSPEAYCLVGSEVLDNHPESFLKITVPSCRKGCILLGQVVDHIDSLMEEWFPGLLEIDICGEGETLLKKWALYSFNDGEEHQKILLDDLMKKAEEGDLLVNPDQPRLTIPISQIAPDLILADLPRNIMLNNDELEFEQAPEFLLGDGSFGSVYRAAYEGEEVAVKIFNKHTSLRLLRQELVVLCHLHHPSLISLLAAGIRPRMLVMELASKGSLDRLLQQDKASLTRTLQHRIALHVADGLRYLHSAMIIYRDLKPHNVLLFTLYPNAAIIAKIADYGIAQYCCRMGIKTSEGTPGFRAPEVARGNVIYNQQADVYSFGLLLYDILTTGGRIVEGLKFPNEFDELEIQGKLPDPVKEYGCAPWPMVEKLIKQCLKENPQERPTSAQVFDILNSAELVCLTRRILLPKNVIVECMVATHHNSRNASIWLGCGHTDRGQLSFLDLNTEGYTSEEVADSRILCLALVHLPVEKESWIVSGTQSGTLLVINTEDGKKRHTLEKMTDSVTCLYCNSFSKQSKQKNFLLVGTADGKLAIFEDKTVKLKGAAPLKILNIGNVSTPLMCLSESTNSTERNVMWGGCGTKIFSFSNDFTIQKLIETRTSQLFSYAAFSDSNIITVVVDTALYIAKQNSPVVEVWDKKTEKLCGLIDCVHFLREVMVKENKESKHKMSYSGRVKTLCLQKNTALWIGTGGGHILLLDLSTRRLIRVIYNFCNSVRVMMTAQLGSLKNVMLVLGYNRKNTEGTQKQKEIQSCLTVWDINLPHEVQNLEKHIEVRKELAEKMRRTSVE

Structure (SMILES) | IC50 [1] [µM] | IC50 [2] [µM] | Ki [3] [µM]
COc1cccc2nc(Nc3cc(C4CC4)[nH]n3)c3n[nH]cc3c12 [Example #199, (5-Cyclopropyl-1H-pyrazol-3-yl)-(9-methoxy-2H-pyrazolo[3,4-c]quinolin-4-yl)-amine] | 0.01 to 0.1 | < 5 | 0.01 to 0.1
COc1ccc2nc(Nc3cccc(NC(C)=O)c3)c3[nH]ncc3c2c1 [Example #120, N-[3-(8-Methoxy-3H-pyrazolo[3,4-c]quinolin-4-ylamino)-phenyl]-acetamide] | 0.01 to 0.1 | < 5 | 0.01 to 0.1
COc1ccc2nc(Nc3ccc(NCCCN(C)C)nc3)c3n[nH]cc3c2c1 [Example #253, N2-(3-(dimethylamino)propyl)-N5-(8-methoxy-2H-pyrazolo[3,4-c]quinolin-4-yl)pyridine-2,5-diamine] | 0.1 to 1 | < 5 | 0.1 to 1
COc1cccc2c1nc(Nc1ccc3[nH]cnc3c1)c1n[nH]cc12 [Example #242, (1H-benzoimidazol-5-yl)-(6-methoxy-2H-pyrazolo[3,4-c]quinolin-4-yl)-amine] | 0.1 to 1 | < 5 | 0.01 to 0.1
COc1ccc2nc(Nc3ccc(OC4CCN(C)CC4)cc3)c3n[nH]cc3c2c1 [Example #163, (8-Methoxy-2H-pyrazolo[3,4-c]quinolin-4-yl)-[4-(1-methyl-piperidin-4-yloxy)-phenyl]-amine] | 0.1 to 1 | < 5 | 0.01 to 0.1
CNS(=O)(=O)c1cccc(Nc2nc3ccc(OC)cc3c3c[nH]nc23)c1 [Example #348, 3-((8-methoxy-2H-pyrazolo[3,4-c]quinolin-4-yl)amino)-N-methylbenzenesulfonamide] | 0.01 to 0.1 | < 5 | 0.01 to 0.1
COc1cccc2nc(Nc3cccc(S(C)(=O)=O)c3)c3[nH]ncc3c12 [Example #338, 9-methoxy-N-(3-(methylsulfonyl)phenyl)-3H-pyrazolo[3,4-c]quinolin-4-amine] | 0.1 to 1 | < 5 | 0.1 to 1
COc1ccc2nc(Nc3cnc4c(c3)CN(C)CC4)c3n[nH]cc3c2c1 [Example #230, (8-Methoxy-2H-pyrazolo[3,4-c]quinolin-4-yl)-(6-methyl-5,6,7,8-tetrahydro-[1,6]naphthyridin-3-yl)-amine] | 0.1 to 1 | < 5 | 0.1 to 1
COc1cccc2c1nc(Nc1ccc(N3CCOCC3)c(F)c1)c1n[nH]cc12 [Example #246, (3-Fluoro-4-morpholin-4-yl-phenyl)-(6-methoxy-2H-pyrazolo[3,4-c]quinolin-4-yl)-amine] | 0.1 to 1 | < 5 | < 0.01
COc1cccc2c1nc(Nc1ccc3cn[nH]c3c1)c1n[nH]cc12 [Example #171, (1H-Indazol-6-yl)-(6-methoxy-2H-pyrazolo[3,4-c]quinolin-4-yl)-amine] | 0.1 to 1 | < 5 | 0.01 to 0.1
c1cnc2c(c1)nc(Nc1ccc3[nH]ncc3c1)c1n[nH]cc12 [Example #56, (1H-Indazol-5-yl)-(2H-2,3,5,9-tetraaza-cyclopenta[a]naphthalen-4-yl)-amine] | 0.01 to 0.1 | < 5 | < 0.01
COc1ccc2nc(Nc3ccc(OCCN(C)C)nc3)c3n[nH]cc3c2c1 [Example #245, [6-(2-Dimethylamino-ethoxy)-pyridin-3-yl]-(8-methoxy-2H-pyrazolo[3,4-c]quinolin-4-yl)-amine] | 0.1 to 1 | < 5 | 0.1 to 1
COc1ccc2nc(Nc3ccc(OC)c(NC(C)=O)c3)c3n[nH]cc3c2c1 [Example #142, N-[2-Methoxy-5-(8-methoxy-2H-pyrazolo[3,4-c]quinolin-4-ylamino)-phenyl]-acetamide] | 0.1 to 1 | < 5 | 0.01 to 0.1
Brc1ccc2nc(Nc3ccc4[nH]cnc4c3)c3n[nH]cc3c2c1 [Example #34, (1H-Benzoimidazol-5-yl)-(8-bromo-2H-pyrazolo[3,4-c]quinolin-4-yl)-amine] | 0.1 to 1 | < 5 | 0.01 to 0.1
